Assay results reported in EP4599826A1, “LEUCINE FOR USE IN THE TREATMENT OF CANCER” (priority 2024, dated 2025).

How the values were obtained:
[1] = test system: 4T1-luc cell transplants; assay: syngeneic orthotopic 4T1 TNBC mouse model: tumor growth and survival; type: in vivo, female BALB/c mice
Procedure: (§1) As for experiments employing the use of chemotherapy, carboplatin (Sindan, 10mg/ml), oxaliplatin (Mylan, 5mg/ml in infusion solution) and paclitaxel (Accord, 6mg/ml in 527mg/ml polyoxyethylated castor oil and 391 mg/ml ethanol) were provided by Istituto Nazionale dei Tumori, Milano.
(§2) The impact of oral Leucine supplementation, as given at a daily dose of 500 mg/Kg Leucine by oral gavage, was investigated on in vivo tumor growth and mouse survival in orthotopic (4T1 and E0771 TNBC cells injected in the mammary fat pad of female BALB/c mice and female C57BL6/J mice, respectively) or subcutaneous (CT26: murine colorectal carcinoma - CRC, or LLC: murine […] lung carcinoma cells, injected in the subcutaneous tissue of female BALB/c mice and female C57BL6/J mice, respectively) syngeneic tumor models.

[2] = test system: LLC lung cell transplants; assay: syngeneic subcutaneous LLC lung cancer mouse model: tumor growth and survival; type: in vivo, female C57BL6/J mice
Procedure: as §1, §2

[3] = test system: E0771 cell transplants; assay: syngeneic orthotopic E0771 TNBC mouse model: tumor growth and survival; type: in vivo, female C57BL6/J mice
Procedure: as §1, §2

[4] = test system: CT26 CRC cell transplants; assay: syngeneic subcutaneous CT26 colorectal cancer mouse model: tumor growth and survival; type: in vivo, female BALB/c mice
Procedure: as §1, §2

[5] = test system: syngeneic mouse tumor models; conditions: Leucine + anti-PD-L1 immunotherapy, tumor model not stated
[6] = carboplatin alone, 50 mg/kg once a week i.p.
[7] = Leucine 500 mg/kg daily + cyclic fasting + carboplatin 50 mg/kg weekly + anti-PD-L1 MoAb, compared to the fasting-Leucine doublet
[8] = Leucine 500 mg/kg daily oral gavage + anti-PD-L1 MoAb 100 ug per mouse i.p. every other day, 4 cycles
[9] = Leucine 500 mg/kg daily oral gavage + carboplatin 50 mg/kg once a week i.p., effect less evident, yet still statistically significant
[10] = Leucine 500 mg/kg daily oral gavage + cyclic fasting (48-hour water-only fasting, repeated every 7 days)
[11] = Leucine 500 mg/kg once a day by oral gavage, alone, standard diet
[12] = Leucine 500 mg/kg daily oral gavage + paclitaxel 30 mg/kg once a week i.p., most relevant effects in this model
[13] = Leucine 500 mg/kg daily oral gavage + oxaliplatin 5 mg/kg once a week i.p., effect less evident, yet still statistically significant
[14] = Leu + fasting + anti-PD-L1, compared to anti-PDL1 MoAb + fasting
[15] = paclitaxel alone, 30 mg/kg once a week i.p.
[16] = oxaliplatin alone, 5 mg/kg once a week i.p.

N.N.O=C([O-])C1(C(=O)[O-])CCC1.[Pt+2] [carboplatin, reference compound]
animal survival [1, 6]: statistically significant prolongation of animal survival
in vivo tumor growth [1, 6]: slowed down in vivo tumor growth
animal survival [2, 6]: statistically significant prolongation of animal survival
in vivo tumor growth [2, 6]: slowed down in vivo tumor growth

CC(C)C[C@H](N)C(=O)O [Leucine]
animal survival [1, 7]: meaningful prolongation of animal survival
animal survival [1, 8]: prolonged animal survival
in vivo tumor growth [1, 8]: cooperatively slowed down in vivo tumor growth
animal survival [1, 9]: prolonging animal survival
in vivo tumor growth [1, 9]: cooperated with chemotherapy in slowing down in vivo tumor growth
animal survival [1, 10]: significant prolongation of animal survival
in vivo tumor growth [1, 10]: cooperative reduction of in vivo tumor growth
animal survival [1, 11]: prolonged animal survival
primary tumor growth [1, 11]: slowed down primary tumor growth
animal survival ([3]; Leucine 500 mg/kg daily + cyclic fasting + paclitaxel 30 mg/kg weekly + anti-PD-L1 MoAb, compared to the fasting-Leucine doublet): meaningful prolongation of animal survival
animal survival [3, 8]: prolonged animal survival
in vivo tumor growth [3, 8]: cooperatively slowed down in vivo tumor growth
animal survival [3, 10]: significant prolongation of animal survival
in vivo tumor growth [3, 10]: cooperative reduction of in vivo tumor growth
animal survival [3, 12]: prolonging animal survival
in vivo tumor growth [3, 12]: cooperated with chemotherapy in slowing down in vivo tumor growth
animal survival [3, 11]: prolonged animal survival
primary tumor growth [3, 11]: slowed down primary tumor growth
primary tumor ([3]; quadruple treatment: Leucine + cyclic fasting + paclitaxel + anti-PD-L1 MoAb): complete regression of the primary tumor in some mice
animal survival ([4]; Leucine 500 mg/kg daily + cyclic fasting + oxaliplatin 5 mg/kg weekly + anti-PD-L1 MoAb, compared to the fasting-Leucine doublet): meaningful prolongation of animal survival
animal survival [4, 8]: prolonged animal survival
in vivo tumor growth [4, 8]: cooperatively slowed down in vivo tumor growth
animal survival [4, 10]: significant prolongation of animal survival
in vivo tumor growth [4, 10]: cooperative reduction of in vivo tumor growth
animal survival [4, 13]: prolonging animal survival
in vivo tumor growth [4, 13]: cooperated with chemotherapy in slowing down in vivo tumor growth
animal survival [4, 11]: prolonged animal survival
primary tumor growth [4, 11]: slowed down primary tumor growth
primary tumor ([4]; quadruple treatment: Leucine + cyclic fasting + oxaliplatin + anti-PD-L1 MoAb): complete regression of the primary tumor in some mice
animal survival [2, 14]: prolonged animal survival
tumor growth [2, 14]: significantly slowed down tumor growth
animal survival [2, 7]: meaningful prolongation of animal survival
animal survival [2, 9]: prolonging animal survival
in vivo tumor growth [2, 9]: cooperated with chemotherapy in slowing down in vivo tumor growth
animal survival [2, 10]: significant prolongation of animal survival
in vivo tumor growth [2, 10]: cooperative reduction of in vivo tumor growth
animal survival [2, 11]: prolonged animal survival
primary tumor growth [2, 11]: slowed down primary tumor growth
primary tumor mass ([5]; observed in some animals): completed disappearance of the primary tumor mass
survival of some mice ([5]; some mice): long-term survival

CC(=O)O[C@H]1C(=O)[C@@]2(C)[C@H]([C@H](OC(=O)c3ccccc3)[C@]3(O)C[C@H](OC(=O)[C@H](O)[C@@H](NC(=O)c4ccccc4)c4ccccc4)C(C)=C1C3(C)C)[C@]1(OC(C)=O)CO[C@@H]1C[C@@H]2O [paclitaxel, reference compound]
animal survival [3, 15]: statistically significant prolongation of animal survival
in vivo tumor growth [3, 15]: slowed down in vivo tumor growth

O=C1[O][Pt]2([NH][C@@H]3CCCC[C@H]3[NH]2)[O]C1=O [oxaliplatin, reference compound]
animal survival [4, 16]: statistically significant prolongation of animal survival
in vivo tumor growth [4, 16]: slowed down in vivo tumor growth
